Test results from patent publication US12649755B2, “Plasmin inhibitor, preparation method therefor and application thereof” (SCINNOHUB PHARMACEUTICAL CO., LTD, priority 2020, dated 2026).
Like-named read-outs stand apart in the source and are kept apart here. Blank lines part the entries; values can stand above or below the compound they belong to.

Legend:
[1] = system: plasma clots (human plasma, tPA-induced lysis); experiment: Plasma clot lysis assay; assay type: biochemical; conditions: for IC50: human plasma, tPA, clot lysis time by absorbance at 405 nm, read-out: IC50 value for inhibition of plasma clot lysis
Source text: To determine the inhibitory effect of the compounds of the invention on the degradation of plasma clots.
3. […] The time corresponding to the median of the absorption value in the descending section-the time corresponding to the median of the absorption value in the ascending section is the plasma clot degradation time (Clot lysis time).
Taking the log value of the compound concentration as the X-axis, and the percentage inhibition rate as the Y-axis, and dose-response curves were fitted with the software GraphPad Prism 5 by using log (inhibitor) vs. Response-Variable slope to derive IC50 values of compounds inhibiting the degradation of plasma clots. Y=min+(max−min)/(1+10^((LogIC50−X)×Hillslope). Formula: […]

[2] = Rat PK assay, intravenous administration; assay type: in vivo; conditions: male, Sprague-Dawley, plasma, SD rats, 1 mg/kg single dose
Method: The pharmacokinetic profile of the compounds of the invention in rats was studied by measuring the plasma drug concentration after intravenous administration.
Male Sprague-Dawley rats of SPF grade, 3 rats each group, were obtained from: Shanghai Sippe-Bk Lab Animal Co., Ltd.
The compound was weighed and dissolved in normal saline to prepare a 0.2 mg/mL solution for intravenous administration.
The day before the experiment, the rats were fasted overnight and fed 4 hours after administration.
On the day of the experiment, the rats were administered according to the scheme in the table below. At each time point after administration, approximately 200 μL of blood was collected from the jugular vein and placed in heparin sodium anticoagulation tubes. Blood samples were placed on ice after collection, and the plasma was separated by centrifugation within 1 hour (centrifugation conditions: 6800 g, 6 minutes, 2-8° C.). The separated plasma was stored in a refrigerator at −80° C. for biological sample analysis.
The compound concentration in rat plasma was determined by the following method: • Instruments and equipment: LC-MS/MS-19 (TQ5500, AB SCIEX, USA). • Internal standard: warfarin. • Chromatographic column: ACQUITY UPLC BEH C18, model 1.7 um 2.1*50 mm, purchased from Shenzhen Novah Chemical Technology Co., Ltd.; • Flow rate: 0.60 ml/min. • Column temperature: 40° C. • Mobile phase A: 0.1% formic acid in water. • Mobile phase B: 0.1% formic acid in acetonitrile.
Take 30 μL of the plasma sample prepared from item “3”, add 300 μL MeOH containing 100 ng/ml of internal standard to precipitate protein. The mixture was vortexed for 1 minute and centrifuged at 18000 g for 7 minutes. The supernatant was transferred to a 96-well plate. Inject 4 μL of supernatant into LC-MS/MS for analysis.
The concentration of the compound in rat plasma was determined by the above-mentioned LC-MS/MS analysis method, and pharmacokinetic parameters were calculated by using Phoenix WinNonlin7.0 software according to blood concentration data of different time points.

[3] = system: human whole blood under hyperfibrinolytic state induced by rtPA; experiment: Human whole blood thromboelastography (TEG) assay; assay type: biochemical; conditions: for CLT doubling: clot lysis time at the doubling concentration
Method: The antifibrinolytic effect of the compounds of the invention in the human whole blood under hyperfibrinolytic state induced by rtPA (recombinant tissue […]) was determined using the Thromboelastogram (TEG).
• Source of human blood: All human blood used in the experiments was provided by healthy volunteers. 3. Experimental Procedure • (1) Preparation of test substance solution: Accurately weigh the test substance, and use normal saline to prepare the test substance to the following concentrations (100×test concentration): • Tranexamic acid (μM): 3000, 1000, 300, 100, 30, 10, 0; • Example 6 (μM): 1000, 300, 100, 30, 10, 3, 0. • (2) Preparation of rt-PA (alteplase for injection): the active dry powder of rtPA was formulated to 25 μg/mL using water for injection in the rtPA package. • (3) Reaction system:
Mix 392 μL of sodium citrate anticoagulated whole blood with 4 μL rtPA and 4 μL test substance, reacted at room temperature, and TEG curve was detected for 2 hours to obtain the time parameter of CLT (clot lysis time). • (4) Result calculations
Taking the log value of the compound concentration as the X-axis and the CLT value as the Y-axis, and dose-response curves were fitted using log (inhibitor) vs. Response-Variable slope (GraphPad Prism 8 software).
The concentration of compound corresponding to doubling the CLT time was calculated.

fibrinolysis = conditions: relative to EACA; cited from earlier work
[4] = relative inhibition of plasma clot lysis vs tranexamic acid in vitro, plasma clot lysis

Structure (SMILES): Cl.O=P(O)(O)c1ccc2c(n1)CCNC2 [Example 1, (5,6,7,8-tetrahydro-1,6-naphthyridin-2-yl)phosphonic Acid Hydrochloride]
IC50 [1]: 900 nM
IC50 ratio (IC50 Examples/IC50 Tranexamic acid) [1, 4]: 0.19
AUC [2]: 14000 ng·h/mL
Cmax [2]: 10200 ng/mL
clearance [2]: 1.14 mL/min/kg
half-life [2]: 1.96 h

Structure (SMILES): Cl.O=P(O)(O)c1nc2c(cc1F)CNCC2 [Example 2, (3-fluoro-5,6,7,8-tetrahydro-1,6-naphthyridin-2-yl)phosphonic Acid Hydrochloride]
IC50 ratio (IC50 Examples/IC50 Tranexamic acid) [1, 4]: 0.11
AUC [2]: 30100 ng·h/mL
Cmax [2]: 10100 ng/mL
clearance [2]: 0.555 mL/min/kg
half-life [2]: 4.15 h

Structure (SMILES): CCP(=O)(O)c1ccc2c(n1)CCNC2.Cl [Example 3, Ethyl (5,6,7,8-tetrahydro-1,6-naphthyridin-2-yl)-phosphinic Acid Hydrochloride]
IC50 ratio (IC50 Examples/IC50 Tranexamic acid) [1]: 0.86

Structure (SMILES): Cl.O=P(O)(CCc1ccccc1)c1ccc2c(n1)CCNC2 [Example 4, Phenylethyl (5,6,7,8-tetrahydro-1,6-naphthyridin-2-yl) Phosphinic Acid Hydrochloride]
IC50 ratio (IC50 Examples/IC50 Tranexamic acid) [1, 4]: 0.36

Structure (SMILES): Cl.O=P(O)(O)c1ccc2c(n1)C(F)(F)CNC2 [Example 5, (8,8-difluoro-5,6,7,8-tetrahydro-1,6-naphthyridin-2-yl) Phosphonic Acid Hydrochloride]
IC50 ratio (IC50 Examples/IC50 Tranexamic acid) [1, 4]: 1.3

Structure (SMILES): O=P(O)(O)c1ccc2c(n1)CCNC2 [Example 6, (5,6,7,8-tetrahydro-1,6-naphthyridin-2-yl) Phosphonic Acid Monohydrate]
IC50 ratio (IC50 Examples/IC50 Tranexamic acid) [1, 4]: 0.09
Compound concentration for doubling CLT [3]: 0.12 µM
CLT doubling [3]: 37.06 min

Structure (SMILES): Cl.O=P(O)(O)c1ccc2c(n1)C(N1CCOCC1)CNC2 (centres unmarked) [Example 7, (8-morpholino-5,6,7,8-tetrahydro-1,6-naphthyridin-2-yl) Phosphonic Acid Hydrochloride]
IC50 ratio (IC50 Examples/IC50 Tranexamic acid) [1, 4]: 0.3

Structure (SMILES): Cl.O=P(O)(O)c1ccc2c(n1)C(O)CNC2 (centres unmarked) [Example 8, (8-hydroxy-5,6,7,8-tetrahydro-1,6-naphthyridin-2-yl) Phosphonic Acid Hydrochloride]
IC50 ratio (IC50 Examples/IC50 Tranexamic acid) [1, 4]: 0.2
AUC [2]: 6660 ng·h/mL
Cmax [2]: 5990 ng/mL
clearance [2]: 2.44 mL/min/kg
half-life [2]: 1.74 h

Structure (SMILES): Cl.O=P(O)(O)c1ccc2c(n1)C(OCCO)CNC2 (centres unmarked) [Example 9, (8-(2-hydroxyethoxy)-5,6,7,8-tetrahydro-1,6-naphthyridin-2-yl) Phosphonic Acid Hydrochloride]
IC50 ratio (IC50 Examples/IC50 Tranexamic acid) [1, 4]: 0.25

Structure (SMILES): CC(C)CC1Cc2nc(P(=O)(O)O)ccc2CN1.Cl (centres unmarked) [Example 11, (7-isobutyl-5,6,7,8-tetrahydro-1,6-naphthyridin-2-yl) Phosphonic Acid Hydrochloride]
IC50 ratio (IC50 Examples/IC50 Tranexamic acid) [1, 4]: 0.08

Structure (SMILES): CCCC1Cc2nc(P(=O)(O)O)ccc2CN1.Cl (centres unmarked) [Example 12, (7-propyl-5,6,7,8-tetrahydro-1,6-naphthyridin-2-yl) Phosphonic Acid Hydrochloride]
IC50 ratio (IC50 Examples/IC50 Tranexamic acid) [1, 4]: 0.2

Structure (SMILES): Cl.O=P(O)(O)c1ccc2c(n1)CC(CCc1ccccc1)NC2 (centres unmarked) [Example 13, (7-phenylethyl-5,6,7,8-tetrahydro-1,6-naphthyridin-2-yl) Phosphonic Acid Hydrochloride]
IC50 ratio (IC50 Examples/IC50 Tranexamic acid) [1, 4]: 0.2

Structure (SMILES): CCOP(=O)(O)c1ccc2c(n1)CCNC2.Cl [Example 15]
IC50 ratio (IC50 Examples/IC50 Tranexamic acid) [1, 4]: 0.29
AUC [2]: 2830 ng·h/mL
Cmax [2]: 4890 ng/mL
clearance [2]: 5.85 mL/min/kg
half-life [2]: 0.77 h

IC50 ratio (IC50 Examples/IC50 Tranexamic acid) [1, 4]: 0.07
Structure (SMILES): COc1ccc(CCC2Cc3nc(P(=O)(O)O)ccc3CN2)cc1.Cl (centres unmarked) [Example 16]

Structure (SMILES): Cl.O=P(O)(c1ccccc1)c1ccc2c(n1)CCNC2 [Example 17]
IC50 ratio (IC50 Examples/IC50 Tranexamic acid) [1, 4]: 0.2
AUC [2]: 2820 ng·h/mL
Cmax [2]: 4090 ng/mL
clearance [2]: 5.83 mL/min/kg
half-life [2]: 1.53 h

Structure (SMILES): CC(=O)OCOP(=O)(O)c1ccc2c(n1)CCNC2 [Example 18]
IC50 ratio (IC50 Examples/IC50 Tranexamic acid) [1, 4]: 0.23

Structure (SMILES): CC(C)C(=O)OCOP(=O)(O)c1ccc2c(n1)CCNC2 [Example 19]
IC50 ratio (IC50 Examples/IC50 Tranexamic acid) [1, 4]: 0.26

Structure (SMILES): Cl.O=P(O)(O)c1ccc2c(n1)C(N1CCSCC1)CNC2 (centres unmarked) [Example 20]
IC50 ratio (IC50 Examples/IC50 Tranexamic acid) [1, 4]: 0.21

Structure (SMILES): Cl.O=P(O)(O)c1ccc2c(n1)C(N1CCS(=O)(=O)CC1)CNC2 (centres unmarked) [Example 21]
IC50 ratio (IC50 Examples/IC50 Tranexamic acid) [1, 4]: 0.25

Structure (SMILES): Cl.O=P(O)(O)c1ccc2c(n1)CC(COCCCO)NC2 (centres unmarked) [Example 22]
IC50 ratio (IC50 Examples/IC50 Tranexamic acid) [1, 4]: 0.14
AUC [2]: 5530 ng·h/mL
Cmax [2]: 6790 ng/mL
clearance [2]: 2.98 mL/min/kg
half-life [2]: 3.58 h

Structure (SMILES): CC(C)(C)CC1Cc2nc(P(=O)(O)O)ccc2CN1.Cl (centres unmarked) [Example 23]
IC50 ratio (IC50 Examples/IC50 Tranexamic acid) [1, 4]: 0.19

Structure (SMILES): CC(C)C1Cc2nc(P(=O)(O)O)ccc2CN1.Cl (centres unmarked) [Example 24]
IC50 ratio (IC50 Examples/IC50 Tranexamic acid) [1, 4]: 0.14

IC50 ratio (IC50 Examples/IC50 Tranexamic acid) [1, 4]: 0.21
Structure (SMILES): Cl.O=P(O)(O)c1ccc2c(n1)CC(CCCc1ccccc1)NC2 (centres unmarked) [Example 25]

Structure (SMILES): CC(C)CCC1Cc2nc(P(=O)(O)O)ccc2CN1.Cl (centres unmarked) [Example 26]
IC50 ratio (IC50 Examples/IC50 Tranexamic acid) [1, 4]: 0.09

Structure (SMILES): CC(C)(C)CCC1Cc2nc(P(=O)(O)O)ccc2CN1.Cl (centres unmarked) [Example 27]
IC50 ratio (IC50 Examples/IC50 Tranexamic acid) [1, 4]: 0.1

Structure (SMILES): Cl.O=P(O)(O)c1ccc2c(n1)CC(CC1CCCCC1)NC2 (centres unmarked) [Example 28]
IC50 ratio (IC50 Examples/IC50 Tranexamic acid) [1, 4]: 0.07

Structure (SMILES): Cl.O=P(O)(O)c1ccc2c(n1)CC(CCC1CCCCC1)NC2 (centres unmarked) [Example 29]
IC50 ratio (IC50 Examples/IC50 Tranexamic acid) [1, 4]: 0.09

Structure (SMILES): Cl.O=P(O)(O)c1ccc2c(n1)CC(Cc1ccccc1)NC2 (centres unmarked) [Example 30]
IC50 ratio (IC50 Examples/IC50 Tranexamic acid) [1, 4]: 0.75

Structure (SMILES): CC(C)CC1(CC(C)C)Cc2nc(P(=O)(O)O)ccc2CN1.Cl [Example 31]
IC50 ratio (IC50 Examples/IC50 Tranexamic acid) [1, 4]: 0.1

Structure (SMILES): Cl.O=P(O)(O)c1ccc2c(n1)CC1(CCC1)NC2 [Example 32]
IC50 ratio (IC50 Examples/IC50 Tranexamic acid) [1, 4]: 0.7

Structure (SMILES): Cl.O=P(O)(O)c1ccc2c(n1)CC1(CCCC1)NC2 [Example 33]
IC50 ratio (IC50 Examples/IC50 Tranexamic acid) [1, 4]: 0.22

Structure (SMILES): Cl.O=P(O)(O)c1ccc2c(n1)CC1(CCCCC1)NC2 [Example 34]
IC50 ratio (IC50 Examples/IC50 Tranexamic acid) [1, 4]: 0.29

Structure (SMILES): CCOC(=O)OCOP(=O)(O)c1ccc2c(n1)CCNC2 [Example 35]
IC50 ratio (IC50 Examples/IC50 Tranexamic acid) [1, 4]: 0.18

IC50 [1]: 4750 nM
AUC [2]: 2820 ng·h/mL
Cmax [2]: 4410 ng/mL
clearance [2]: 5.78 mL/min/kg
half-life [2]: 1.28 h
Structure (SMILES): NC[C@H]1CC[C@H](C(=O)O)CC1 [Tranexamic acid, trans-4-aminomethyl-cyclohexane-carboxylic acid, reference compound]
Compound concentration for doubling CLT [3]: 1.78 µM
CLT doubling [3]: 34.66 min
anti-fibrinolytic activity, times that of EACA (fibrinolysis): about 10 times
